Reference: US5696151A, “Compounds useful for the inhibition of the replication of HIV-1 and HIV-1 mutants” (priority 1995, dated 1997)
Values after ≈ are worked out from the molar mass of the structure shown. Like-named read-outs stand apart in the source and are kept apart here.

Experiments:
Format in all cases: cell-based
[1] = test system: HIV-1/100-Ile; experiment: Inhibition of HIV-1 induced syncytium formation in CEM cells, RT mutant 100-Ile; settings: Human immunodeficiency virus 1, CCRF-CEM, 96 h
Source text: (§1) CEM cells were obtained from the American Tissue Cell Culture Collection (Rockville, Md.). HIV-1(IIIB) was originally obtained from the culture supernatant of persistently HIV-1-infected H9 cells and was provided by R. C. Gallo and M. Popovic (National Cancer Institute, National Institutes of Health, Bethesda, Md.). […] 67: 5353-5359 (1993); HIV-1/Lys-138 ("Lys-138") was selected for resistance against TSAO-m^3T as described in Balzarini et al, Virology 192: 246-253 (1993) and Balzarini et al, Proc. Nat. Acad. Sci. USA 90: 6952-6956 (1993); HIV-1/181-Cys ("181-Cys") was selected for resistance against pyridinone L-697,661 as described in Balzarini et al, Virology 192: 246-253 (1993); and HIV-1/188-His ("188-His") was selected for resistance against HEPT as described in Balzarini et al, Mol. Pharmocol. 44: 694-701 (1993). 188-His was then further converted to HIV-1/188-Leu "188-Leu") upon further passage in cell culture in the absence of the HEPT.
(§2) CEM cells were suspended at ≈300,000 cells per ml of culture medium and infected with approximately 100 CCID50 (CCID50 being the 50% cell culture infective dose) of HIV-1(IIIB) or one of the HIV-1 RT mutant strains described above. Then 100 μl of the infected cell suspensions was added to 200 μl microtiter plate wells containing 100 μl of appropriate serial (5-fold) dilutions of the test compounds. The inhibitory effect of the test compounds on HIV-1 induced syncytium formation in CEM cells was examined microscopically on day 4 post infection.

[2] = test system: HIV-1(IIIB); experiment: Inhibition of HIV-1 induced syncytium formation in CEM cells, wild type; settings: Human immunodeficiency virus 1, IIIB, CCRF-CEM, 96 h, Table 2B, WT = HIV-1(IIIB), day 4, averages of 2 to 3 independent experiments, read-out: Antiviral Activity of Comparative Compounds EC50, WT
Source text: as §1, §2

[3] = test system: HIV-1/106-Ala; experiment: Inhibition of HIV-1 induced syncytium formation in CEM cells, RT mutant 106-Ala; settings: Human immunodeficiency virus 1, CCRF-CEM, 96 h
Source text: as §1, §2

[4] = in vitro; settings: human, cem cells, CC50 (50% cytostatic concentration), Table 2B; CEM cell proliferation; averages of 2 to 3 independent experiments
Source text: as §1
^b 50% cytostatic concentration (i.e., compound concentration require
to inhibit CEM cell proliferation by 50%)

[5] = test system: HIV-1/Lys-138; experiment: Inhibition of HIV-1 induced syncytium formation in CEM cells, RT mutant 138-Lys; settings: Human immunodeficiency virus 1, CCRF-CEM, 96 h
Source text: as §1, §2

[6] = test system: HIV-1/181-Cys; experiment: Inhibition of HIV-1 induced syncytium formation in CEM cells, RT mutant 181-Cys; settings: Human immunodeficiency virus 1, CCRF-CEM, 96 h
Source text: as §1, §2

[7] = Table 2B, day 4, averages of 2 to 3 independent experiments, read-out: Antiviral Activity of Comparative Compounds EC50, 100-Ile
[8] = Table 2B, day 4, averages of 2 to 3 independent experiments, read-out: Antiviral Activity of Comparative Compounds EC50, 106-Ala
[9] = Table 2B, day 4, averages of 2 to 3 independent experiments, read-out: Antiviral Activity of Comparative Compounds EC50, 138-Lys
[10] = Table 2B, day 4, averages of 2 to 3 independent experiments, read-out: Antiviral Activity of Comparative Compounds EC50, 181-Cys

Compound	EC50 [1, 7]	EC50 [2]	EC50 [3, 8]	CC50 [4]	EC50 [5, 9]	EC50 [6, 10]	EC50 ([1]; read-out: Antiviral Activity of Comparative Compounds EC50, 100-Ile, Table 2B, day 4, averages of 2 to 3 independent experiments)	EC50 ([3]; read-out: Antiviral Activity of Comparative Compounds EC50, 106-Ala, Table 2B, day 4, averages of 2 to 3 independent experiments)	EC50 ([5]; read-out: Antiviral Activity of Comparative Compounds EC50, 138-Lys, Table 2B, day 4, averages of 2 to 3 independent experiments)	EC50 ([6]; read-out: Antiviral Activity of Comparative Compounds EC50, 181-Cys, Table 2B, day 4, averages of 2 to 3 independent experiments)
CC(C)OC(=O)c1cc(NC(=S)c2ccco2)ccc1Cl [Compound 86]	5 µg/mL (≈ 15.4 µM)	0.1 µg/mL (≈ 0.309 µM)	5 µg/mL (≈ 15.4 µM)	7.4 µg/mL (≈ 22.9 µM)	4 µg/mL (≈ 12.4 µM)	5 µg/mL (≈ 15.4 µM)	–	–	–	–
Cc1ccoc1C(=S)Nc1ccc(Cl)c(C(=O)OC(C)C)c1 [Compound 87]	3 µg/mL (≈ 8.88 µM)	0.02 µg/mL (≈ 0.0592 µM)	1 µg/mL (≈ 2.96 µM)	15 µg/mL (≈ 44.4 µM)	0.55 µg/mL (≈ 1.63 µM)	0.53 µg/mL (≈ 1.57 µM)	–	–	–	–
Cc1ccsc1C(=S)Nc1ccc(Cl)c(C(=O)OC(C)C)c1 [Compound 88]	0.7 µg/mL (≈ 1.98 µM)	0.01 µg/mL (≈ 0.0283 µM)	0.6 µg/mL (≈ 1.7 µM)	5.2 µg/mL (≈ 14.7 µM)	0.3 µg/mL (≈ 0.848 µM)	0.27 µg/mL (≈ 0.763 µM)	–	–	–	–
CC(C)OC(=O)c1cc(NC(=S)c2cccs2)ccc1Cl [Compound 89]	3 µg/mL (≈ 8.83 µM)	0.09 µg/mL (≈ 0.265 µM)	4 µg/mL (≈ 11.8 µM)	4.9 µg/mL (≈ 14.4 µM)	1.9 µg/mL (≈ 5.59 µM)	4 µg/mL (≈ 11.8 µM)	–	–	–	–
COc1ccccc1C(=S)Nc1ccc(Cl)c(C(=O)OC(C)C)c1 [Compound 90]	3.5 µg/mL (≈ 9.62 µM)	0.19 µg/mL (≈ 0.522 µM)	6 µg/mL (≈ 16.5 µM)	27 µg/mL (≈ 74.2 µM)	0.7 µg/mL (≈ 1.92 µM)	5.5 µg/mL (≈ 15.1 µM)	–	–	–	–
Cc1ccccc1C(=S)Nc1ccc(Cl)c(C(=O)OC(C)C)c1 [Compound 91]	4.5 µg/mL (≈ 12.9 µM)	0.45 µg/mL (≈ 1.29 µM)	8.5 µg/mL (≈ 24.4 µM)	5.8 µg/mL (≈ 16.7 µM)	5 µg/mL (≈ 14.4 µM)	7.5 µg/mL (≈ 21.6 µM)	–	–	–	–
CC(C)OC(=O)c1cc(NC(=S)c2ccsc2)ccc1Cl [Compound 92]	0.4 µg/mL (≈ 1.18 µM)	0.02 µg/mL (≈ 0.0588 µM)	0.75 µg/mL (≈ 2.21 µM)	4.3 µg/mL (≈ 12.7 µM)	0.5 µg/mL (≈ 1.47 µM)	0.37 µg/mL (≈ 1.09 µM)	–	–	–	–
CC(C)(C)ON=Cc1cc(NC(=S)c2ccccc2)ccc1Cl [Compound 93]	2 µg/mL (≈ 5.77 µM)	0.03 µg/mL (≈ 0.0865 µM)	0.1 µg/mL (≈ 0.288 µM)	9.7 µg/mL (≈ 28 µM)	0.08 µg/mL (≈ 0.231 µM)	0.7 µg/mL (≈ 2.02 µM)	–	–	–	–
Cc1ccoc1C(=S)Nc1ccc(Cl)c(C=NOC(C)C)c1 [Compound 94]	0.75 µg/mL (≈ 2.23 µM)	0.01 µg/mL (≈ 0.0297 µM)	0.5 µg/mL (≈ 1.48 µM)	3.1 µg/mL (≈ 9.2 µM)	0.15 µg/mL (≈ 0.445 µM)	0.6 µg/mL (≈ 1.78 µM)	–	–	–	–
Cc1ccsc1C(=S)Nc1ccc(Cl)c(C=NOC(C)C)c1 [Compound 95]	0.65 µg/mL (≈ 1.84 µM)	0.008 µg/mL (≈ 0.0227 µM)	0.08 µg/mL (≈ 0.227 µM)	13 µg/mL (≈ 36.8 µM)	0.16 µg/mL (≈ 0.453 µM)	0.5 µg/mL (≈ 1.42 µM)	–	–	–	–
CC(C)ON=Cc1cc(NC(=S)c2ccccc2)ccc1Cl [Compound 96]	> 1 µg/mL	0.05 µg/mL (≈ 0.15 µM)	0.75 µg/mL (≈ 2.25 µM)	9 µg/mL (≈ 27 µM)	0.17 µg/mL (≈ 0.511 µM)	> 1 µg/mL	–	–	–	–
Cc1occc1C(=S)Nc1ccc(Cl)c(C=NOC(C)C)c1 [Compound 97]	3.5 µg/mL (≈ 10.4 µM)	0.009 µg/mL (≈ 0.0267 µM)	≥ 4 µg/mL	3.3 µg/mL (≈ 9.8 µM)	2 µg/mL (≈ 5.94 µM)	3.3 µg/mL (≈ 9.8 µM)	–	–	–	–
CC(C)C(OC(=O)c1cc(NC(=S)c2ccccc2F)ccc1Cl)C(C)C [Compound 98]	> 1 µg/mL	0.06 µg/mL (≈ 0.147 µM)	0.85 µg/mL (≈ 2.08 µM)	7.5 µg/mL (≈ 18.4 µM)	0.7 µg/mL (≈ 1.72 µM)	> 1 µg/mL	–	–	–	–
CC(C)C(OC(=O)c1cc(NC(=S)c2ccc[nH]2)ccc1Cl)C(C)C [Compound 99]	–	0.1 µg/mL (≈ 0.264 µM)	–	> 100 µg/mL	–	–	> 1 µg/mL	> 10 µg/mL	> 10 µg/mL	> 10 µg/mL
CC(C)C(OC(=O)c1cc(NC(=S)c2cccn2C)ccc1Cl)C(C)C [Compound 100]	4 µg/mL (≈ 10.2 µM)	0.03 µg/mL (≈ 0.0763 µM)	0.8 µg/mL (≈ 2.04 µM)	> 100 µg/mL	0.4 µg/mL (≈ 1.02 µM)	0.65 µg/mL (≈ 1.65 µM)	–	–	–	–
Cc1ccsc1C(=S)Nc1ccc(Cl)c(C(=O)OC(C(C)C)C(C)C)c1 [Compound 101]	3 µg/mL (≈ 7.32 µM)	0.045 µg/mL (≈ 0.11 µM)	0.2 µg/mL (≈ 0.488 µM)	≥ 100 µg/mL	0.33 µg/mL (≈ 0.805 µM)	0.55 µg/mL (≈ 1.34 µM)	–	–	–	–
